SMILES strings stand for the structures. Some results are limits rather than exact numbers.

In one assay the target is SREBP-2 (Homo sapiens (Human), UniProt Q12772). The assay can be described thus: In vitro assay SREBP-2: PathHunter U2OS SREBP-2 Nuclear Translocation Cell Line, U18666A-stimulated. The following applies: PathHunter U2OS SREBP-2 nuclear translocation cells, U18666A 10 μM, overnight (16 hours). The assay is classed as cell-based.
The target in the next assay is LXRβ (Homo sapiens (Human), UniProt P55055). The assay can be described thus: In vitro assay LXRβ: PathHunter NHR CHO cells, LXRβ / Steroid Receptor Co-activator Peptide enzyme fragment complementation. The following applies: PathHunter NHR CHO cells, full-length human LXRβ and SRCP, chemiluminescent signal; read-out: LXRβ PPI. The assay is classed as cell-based. Put shortly:
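Enzyme fragment complementation read-out: CHO cells stably expressing ProLink-tagged full-length human LXRβ plus nuclear enzyme acceptor–SRCP fusion, seeded and held overnight at 37° C. Medium with charcoal-dextran filtered serum; final vehicle 1%. Chemiluminescence measured after signal generation.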

LXRβ, sequence (P55055 whole entry, the tested form may be a part): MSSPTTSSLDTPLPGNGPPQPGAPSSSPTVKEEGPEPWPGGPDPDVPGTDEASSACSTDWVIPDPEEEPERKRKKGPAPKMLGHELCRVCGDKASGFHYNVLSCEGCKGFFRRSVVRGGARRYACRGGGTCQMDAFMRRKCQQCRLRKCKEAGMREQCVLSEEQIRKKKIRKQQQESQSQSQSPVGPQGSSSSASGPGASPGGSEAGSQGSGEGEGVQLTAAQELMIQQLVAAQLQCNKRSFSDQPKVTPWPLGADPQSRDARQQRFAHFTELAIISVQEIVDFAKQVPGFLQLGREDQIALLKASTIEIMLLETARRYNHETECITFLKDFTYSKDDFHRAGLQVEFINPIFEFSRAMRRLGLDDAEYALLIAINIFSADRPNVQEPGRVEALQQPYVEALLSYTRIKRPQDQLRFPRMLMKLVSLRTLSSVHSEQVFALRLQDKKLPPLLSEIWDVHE

`C[C@H](CCC(=O)N1CCN(c2ncncc2N)CC1)[C@H]1CC[C@H]2[C@@H]3CC=C4C[C@@H](O)CC[C@]4(C)[C@H]3CC[C@]12C` [Example 632, (R)-1-(4-(5-aminopyrimidin-4-yl)piperazin-1-yl)-4-((3S,8S,9S,10R,13R,14S,17R)-3-hydroxy-10,13-dimethyl-2,3,4,7,8,9,10,11,12,13,14,15,16,17-tetradecahydro-1H-cyclopenta[a]phenanthren-17-yl)pentan-1-one] gave an IC50 at SREBP-2 of less than 250 nM. In addition, the EC50 at LXRβ is greater than 10000 nM.

Regarding `C[C@H](CCC(=O)N1CCN(c2cc(N)ncn2)CC1)[C@H]1CC[C@H]2[C@@H]3CC=C4C[C@@H](O)CC[C@]4(C)[C@H]3CC[C@]12C` [Example 633, (R)-1-(4-(6-aminopyrimidin-4-yl)piperazin-1-yl)-4-((3S,8S,9S,10R,13R,14S,17R)-3-hydroxy-10,13-dimethyl-2,3,4,7,8,9,10,11,12,13,14,15,16,17-tetradecahydro-1H-cyclopenta[a]phenanthren-17-yl)pentan-1-one], at SREBP-2, the half-inhibitory concentration (IC50) is less than 250 nM. Besides, the EC50 on LXRβ was greater than 10000 nM.

As for `Cc1nnc(N2CCN(C(=O)CC[C@@H](C)[C@H]3CC[C@H]4[C@@H]5CC=C6C[C@@H](O)CC[C@]6(C)[C@H]5CC[C@]34C)C[C@@H]2C)o1` [Example 634, (4R)-4-[(1R,3aS,3bS,7S,9aR,9bS,11aR)-7-hydroxy-9a,11a-dimethyl-1H,2H,3H,3aH,3bH,4H,6H,7H,8H,9H,9aH,9bH,10H,11H,11aH-cyclopenta[a]phenanthren-1-yl]-1-[(3S)-3-methyl-4-(5-methyl-1,3,4-oxadiazol-2-yl)piperazin-1-yl]pentan-1-one], at SREBP-2, the IC50 is less than 250 nM. The EC50 on LXRβ was greater than 10000 nM.

`Cc1nnc(N2CCN(C(=O)CC[C@@H](C)[C@H]3CC[C@H]4[C@@H]5CC=C6C[C@@H](O)CC[C@]6(C)[C@H]5CC[C@]34C)[C@@H](C)C2)o1` [Example 635, (R)-4-((3S,8S,9S,10R,13R,14S,17R)-3-hydroxy-10,13-dimethyl-2,3,4,7,8,9,10,11,12,13,14,15,16,17-tetradecahydro-1H-cyclopenta[a]phenanthren-17-yl)-1-((S)-2-methyl-4-(5-methyl-1,3,4-oxadiazol-2-yl)piperazin-1-yl)pentan-1-one] showed an IC50 against SREBP-2 of less than 250 nM. Besides, at LXRβ, the EC50 is greater than 10000 nM.

Regarding `C[C@H](CCC(=O)N1CCN(C(=O)N(C)CC2CC2)[C@@H](C)C1)[C@H]1CC[C@H]2[C@@H]3CC=C4C[C@@H](O)CC[C@]4(C)[C@H]3CC[C@]12C` [Example 636, (S)—N-(cyclopropylmethyl)-4-((R)-4-((3S,8S,9S,10R,13R,14S,17R)-3-hydroxy-10,13-dimethyl-2,3,4,7,8,9,10,11,12,13,14,15,16,17-tetradecahydro-1H-cyclopenta[a]phenanthren-17-yl)pentanoyl)-N,2-dimethylpiperazine-1-carboxamide], the 50% inhibitory concentration (IC50) on SREBP-2 is less than 250 nM. Besides, the EC50 on LXRβ is greater than 10000 nM.

`C[C@H](CCC(=O)N1CCN(C(=O)N(C)CC2CC2)C[C@@H]1C)[C@H]1CC[C@H]2[C@@H]3CC=C4C[C@@H](O)CC[C@]4(C)[C@H]3CC[C@]12C` [Example 637, (S)—N-(cyclopropylmethyl)-4-((R)-4-((3S,8S,9S,10R,13R,14S,17R)-3-hydroxy-10,13-dimethyl-2,3,4,7,8,9,10,11,12,13,14,15,16,17-tetradecahydro-1H-cyclopenta[a]phenanthren-17-yl)pentanoyl)-N,3-dimethylpiperazine-1-carboxamide] returned a 50% inhibitory concentration (IC50) against SREBP-2 of less than 250 nM. Further, on LXRβ, the EC50 was greater than 10000 nM.

As to `[C-]#[N+]c1cccnc1CC[C@@H](C)[C@H]1CC[C@H]2[C@@H]3CC=C4C[C@@H](O)CC[C@]4(C)[C@H]3CC[C@]12C` [Example 638, (3S,8S,9S,10R,13R,14S,17R)-17-((R)-4-(3-isocyanopyridin-2-yl)butan-2-yl)-10,13-dim ethyl-2,3,4,7,8,9,10,11,12,13,14,15,16,17-tetradecahydro-1H-cyclopenta[a]phenanthren-3-ol], on SREBP-2, the half-maximal inhibitory concentration (IC50) is less than 250 nM. In addition, at LXRβ, the EC50 lay in the range of 250 to 1000 nM.

Regarding `C[C@H](CCC(=O)N(C)c1ccncc1)[C@H]1CC[C@H]2[C@@H]3CC=C4C[C@@H](O)CC[C@]4(C)[C@H]3CC[C@]12C` [Example 639, (R)-4-((3S,8S,9S,10R,13R,14S,17R)-3-hydroxy-10,13-dimethyl-2,3,4,7,8,9,10,11,12,13,14,15,16,17-tetradecahydro-1H-cyclopenta[a]phenanthren-17-yl)-N-methyl-N-(pyridin-4-yl)pentanamide], the IC50 against SREBP-2 was 250 to 1000 nM. Moreover, the EC50 at LXRβ is greater than 10000 nM.

As to `C[C@H](CCC(=O)N1CCN(c2cccnc2O)CC1)[C@H]1CC[C@H]2[C@@H]3CC=C4C[C@@H](O)CC[C@]4(C)[C@H]3CC[C@]12C` [Example 640, (R)-4-((3S,8S,9S,10R,13R,14S,17R)-3-hydroxy-10,13-dimethyl-2,3,4,7,8,9,10,11,12,13,14,15,16,17-tetradecahydro-1H-cyclopenta[a]phenanthren-17-yl)-1-(4-(2-hydroxypyridin-3-yl)piperazin-1-yl) pentan-1-one], at SREBP-2, the concentration for half-maximal inhibition (IC50) was less than 250 nM. At LXRβ, the EC50 is greater than 10000 nM.

Turning to `C[C@@H](CCC(=O)N[C@H]1CC[C@@H](C(=O)N(C)C)CC1)[C@H]1CC[C@H]2[C@@H]3CC=C4C[C@@H](O)CC[C@]4(C)[C@H]3CC[C@]12C` [Example 641, (1S,4s)-4-((R)-4-((3S,8S,9S,10R,13R,14S,17R)-3-hydroxy-10,13-dimethyl-2,3,4,7,8,9,10,11,12,13,14,15,16,17-tetradecahydro-1H-cyclopenta[a]phenanthren-17-yl)pentanamido)-N,N-dimethylcyclohexane-1-carboxamide], the IC50 on SREBP-2 is less than 250 nM. The EC50 at LXRβ is greater than 10000 nM.

For `C[C@H](CCC(=O)N(C)C1CCN(C(=O)C2CC2)CC1)[C@H]1CC[C@H]2[C@@H]3CC=C4C[C@@H](O)CC[C@]4(C)[C@H]3CC[C@]12C` [Example 642, (R)—N-(1-(cyclopropanecarbonyl)piperidin-4-yl)-4-((3S,8S,9S,10R,13R,14S,17R)-3-hydroxy-10,13-dimethyl-2,3,4,7,8,9,10,11,12,13,14,15,16,17-tetradecahydro-1H-cyclopenta[a]phenanthren-17-yl)-N-methylpentanamide], on SREBP-2, the half-inhibitory concentration (IC50) is less than 250 nM. In addition, on LXRβ, the EC50 is greater than 10000 nM.

On to `COC(=O)N1CCC(N(C)C(=O)CC[C@@H](C)[C@H]2CC[C@H]3[C@@H]4CC=C5C[C@@H](O)CC[C@]5(C)[C@H]4CC[C@]23C)CC1` [Example 643, Methyl 4-[(4R)-4-[(1R,3aS,3bS,7S,9aR,9bS,11aR)-7-hydroxy-9a,11a-dimethyl-1H,2H,3H,3aH,3bH,4H,6H,7H,8H,9H,9aH,9bH,10H,11H,11aH-cyclopenta[a]phenanthren-1-yl]-N-methylpentanamido]piperidine-1-carboxylate], for which the half-maximal inhibitory concentration (IC50) on SREBP-2 was less than 250 nM. Moreover, the EC50 at LXRβ is greater than 10000 nM.

`C[C@H](CCC(=O)N(C)C1CCN(C(=O)N(C)C)CC1)[C@H]1CC[C@H]2[C@@H]3CC=C4C[C@@H](O)CC[C@]4(C)[C@H]3CC[C@]12C` [Example 644, 4-((R)-4-((3S,8S,9S,10R,13R,14S,17R)-3-hydroxy-10,13-dimethyl-2,3,4,7,8,9,10,11,12,13,14,15,16,17-tetradecahydro-1H-cyclopenta[a]phenanthren-17-yl)-N-methylpentanamido)-N,N-dimethylpiperidine-1-carboxamide] yielded an IC50 at SREBP-2 of less than 250 nM. Moreover, the EC50 at LXRβ was greater than 10000 nM.

On to `C[C@H](CCC(=O)N(C)C1CCN(C(=O)N2CCCC2)CC1)[C@H]1CC[C@H]2[C@@H]3CC=C4C[C@@H](O)CC[C@]4(C)[C@H]3CC[C@]12C` [Example 645, (4R)-4-[(1R,3aS,3bS,7S,9aR,9bS,11aR)-7-hydroxy-9a,11a-dimethyl-1H,2H,3H,3aH,3bH,4H,6H,7H,8H,9H,9aH,9bH,10H,11H,11aH-cyclopenta[a]phenanthren-1-yl]-N-methyl-N-[1-(pyrrolidine-1-carbonyl)piperidin-4-yl]pentanamide], for which, at SREBP-2, the IC50 is less than 250 nM. In addition, the EC50 at LXRβ is greater than 10000 nM.

Compound `COc1cc(N2CCN(C(=O)CC[C@@H](C)[C@H]3CC[C@H]4[C@@H]5CC=C6C[C@@H](O)CC[C@]6(C)[C@H]5CC[C@]34C)C[C@@H]2C)ncn1` [Example 646, (R)-4-((3S,8S,9S,10R,13R,14S,17R)-3-hydroxy-10,13-dimethyl-2,3,4,7,8,9,10,11,12,13,14,15,16,17-tetradecahydro-1H-cyclopenta[a]phenanthren-17-yl)-1-((S)-4-(6-methoxypyrimidin-4-yl)-3-methylpiperazin-1-yl)pentan-1-one] showed an IC50 against SREBP-2 of less than 250 nM. In addition, at LXRβ, the EC50 was greater than 10000 nM.

For the compound `Cc1nccc(N2CCN(C(=O)CC[C@@H](C)[C@H]3CC[C@H]4[C@@H]5CC=C6C[C@@H](O)CC[C@]6(C)[C@H]5CC[C@]34C)C[C@@H]2C)n1` [Example 647, (4R)-4-[(1R,3aS,3bS,7S,9aR,9bS,11aR)-7-hydroxy-9a,11a-dimethyl-1H,2H,3H,3aH,3bH,4H,6H,7H,8H,9H,9aH,9bH,10H,11H,11aH-cyclopenta[a]phenanthren-1-yl]-1-[(3S)-3-methyl-4-(2-methylpyrimidin-4-yl)piperazin-1-yl]pentan-1-one], the IC50 against SREBP-2 was less than 250 nM. Moreover, on LXRβ, the EC50 was greater than 10000 nM.

For `COc1cc(N2CCN(C(=O)CC[C@@H](C)[C@H]3CC[C@H]4[C@@H]5CC=C6C[C@@H](O)CC[C@]6(C)[C@H]5CC[C@]34C)[C@@H](C)C2)ncn1` [Example 648, (R)-4-((3S,8S,9S,10R,13R,14S,17R)-3-hydroxy-10,13-dimethyl-2,3,4,7,8,9,10,11,12,13,14,15,16,17-tetradecahydro-1H-cyclopenta[a]phenanthren-17-yl)-1-((S)-4-(6-methoxypyrimidin-4-yl)-2-methylpiperazin-1-yl)pentan-1-one], the 50% inhibitory concentration (IC50) at SREBP-2 is less than 250 nM. Further, the EC50 at LXRβ was greater than 10000 nM.

The IC50 is the concentration needed to halve the response being measured. Low values mean greater potency, high ones weaker potency.
